The values below come from US20080038278A1, “GPAT3 encodes a mammalian, microsomal acyl-coa:glycerol 3- phosphate acyltransferase” (priority 2006, published 2008).

The target of experiment [1] is T1, hGPAT3 (Homo sapiens, UniProt Q53EU6).
T1 construct: full-length mouse and human GPAT3 were cloned by PCR amplification from cDNA libraries; made in house; host or cells: Sf9 insect cells (baculovirus, pFASTBAC1), total lysate; some experiments used lysates of HEK293 cells transfected with hGPAT3 in pcDNA3.1
T1 sequence (Q53EU6 1-434): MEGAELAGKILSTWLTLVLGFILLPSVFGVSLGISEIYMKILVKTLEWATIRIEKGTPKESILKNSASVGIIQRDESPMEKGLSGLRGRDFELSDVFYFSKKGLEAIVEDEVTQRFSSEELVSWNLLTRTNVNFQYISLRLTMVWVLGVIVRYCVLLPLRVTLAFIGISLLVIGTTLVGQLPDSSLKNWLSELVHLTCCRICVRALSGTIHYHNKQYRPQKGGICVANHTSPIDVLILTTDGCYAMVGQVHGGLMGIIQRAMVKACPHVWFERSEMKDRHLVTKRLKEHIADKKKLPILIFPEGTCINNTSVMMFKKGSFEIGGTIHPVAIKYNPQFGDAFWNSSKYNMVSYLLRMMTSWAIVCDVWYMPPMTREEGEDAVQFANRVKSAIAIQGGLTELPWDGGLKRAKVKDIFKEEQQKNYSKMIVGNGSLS
The experiment is described as follows: GPAT activity assay (TLC separation of LPA) in lysates of cells overexpressing hGPAT3. Type of experiment: biochemical. The following applies: for substrate concentration at half-maximal activity (hGPAT3-dependent LPA formation): hGPAT3 expressed in Sf9 cells, nonpurified lysate, other substrate at 100 μM; for increase in LPA formation conferred by hGPAT3 overexpression after NEM pretreatment: preincubated 15 min with NEM (0.4 mM, 0.4 μM elsewhere in the source). From the text:
Sf9 cells were infected with recombinant baculovirus at an MOI of 10 for 64 hrs. Cell pellets were harvested in ice-cold phosphate-buffered saline (PBS), lysed by sonication or Parr bomb, and total lysate was used immediately for enzyme assay. For subcellular fractionation, cel.ls were lysed with a rapid nitrogen decompression method (Parr Instrument Company, IL), followed by differential centrifugation at 8,000g (mitochondrial fraction) and 1 00,000g (microsomal fraction). Total protein concentration was assayed using a Bio-Rad protein assay with bovine serum albumin (BSA) as a standard (Bio-Rad, Hercules, Calif.). GPAT activity was determined by measuring the conversion of glycerol 3-phosphate (G3 P) to 1-acyl-sn-glycerol 3-phosphate in the presence of acyl-CoA. Formation of enzymatic products was detected by either the conventional 1-butanol extraction method followed by scintillation counting, or by thin layer chromatography (TLC) separation followed by exposure to a phosphorimager screen. GPAT activity assay by I -butanol extraction was performed as described (Yet et al., supra; Haldar and Vancura (1992) Methods Enzymol. 209:64-72). Briefly, cell lysates containing 100 μg protein were incubated for 20 min at room temperature in 75 mM Tris HCl, pH 7.5, 4 mM MgCl2, 1 mg/ml fatty acid-free BSA, 8 mM NaF, 50 μM lauroyl-CoA, 3 mM glycerol 3-phosphate, and 1 μCi of [^3H]glycerol 3-phosphate (30 Ci/mmol, American Radiolabeled Chemicals, Inc., St. Louis, Mo.) in a total volume of 250 μl. The reaction was stopped by addition of 0.5 ml of water-saturated 1-butanol and 0.5 ml of 1-butanol-saturated water followed by a vigorous vortex for 5 min. After a brief spin, the top phase (butanol) was transferred to a fresh tube and washed again with 0.5 ml of butanol-saturated water. Finally, an aliquot of the butanol phase was mixed with scintillation cocktail to count radioactivity using Accurate Radioisotope Counting (ARC).
To assess the GPAT activity more precisely, a TLC separation procedure was utilized. […] For TLC, enzymatic products were identified using standards detected by exposure to […]. All quantitative data are expressed as mean±S.E. Statistical analyses for differences between two groups were carried out using a Student's t-test.
To further investigate the role of GPAT3 in TAG and/or phospholipid synthesis in mammalian cells, GPAT3 was overexpressed in HEK293 cells and the incorporation of [^14C]oleic acid into TAG or phospholipids was measured. […]

Experiment [2] has as its target T2, human mtGPAT1 (Homo sapiens, UniProt Q9HCL2).
T2 construct: expressed in transfected cells; host or cells: HEK293 cells, transient transfection (FUGENE 6); total lysate assayed
T2 sequence (Q9HCL2 1-828): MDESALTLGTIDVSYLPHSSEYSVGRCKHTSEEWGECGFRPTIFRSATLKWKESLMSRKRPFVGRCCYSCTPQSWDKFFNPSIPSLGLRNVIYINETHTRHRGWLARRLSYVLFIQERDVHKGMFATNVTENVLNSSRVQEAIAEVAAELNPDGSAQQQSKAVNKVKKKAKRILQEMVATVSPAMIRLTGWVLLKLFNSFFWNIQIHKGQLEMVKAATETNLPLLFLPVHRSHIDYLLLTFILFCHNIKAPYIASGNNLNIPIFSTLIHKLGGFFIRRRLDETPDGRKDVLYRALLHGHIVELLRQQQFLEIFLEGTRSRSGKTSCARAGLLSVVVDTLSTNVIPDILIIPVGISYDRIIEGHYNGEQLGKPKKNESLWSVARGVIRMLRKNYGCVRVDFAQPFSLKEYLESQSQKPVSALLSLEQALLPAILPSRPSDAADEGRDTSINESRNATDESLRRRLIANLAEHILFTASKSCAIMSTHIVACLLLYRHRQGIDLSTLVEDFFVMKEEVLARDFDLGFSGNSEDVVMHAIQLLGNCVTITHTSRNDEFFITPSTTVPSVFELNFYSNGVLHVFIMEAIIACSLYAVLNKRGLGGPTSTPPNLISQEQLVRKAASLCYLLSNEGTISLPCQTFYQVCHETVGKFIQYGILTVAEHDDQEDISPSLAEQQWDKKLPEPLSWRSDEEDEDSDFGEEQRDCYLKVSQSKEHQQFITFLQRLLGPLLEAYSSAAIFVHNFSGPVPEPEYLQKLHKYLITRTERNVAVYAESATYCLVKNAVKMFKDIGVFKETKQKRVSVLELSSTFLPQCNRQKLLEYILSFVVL
The experiment is described as follows: GPAT activity assay (TLC separation of LPA) in lysates of HEK293 cells overexpressing mtGPAT1. Conditions: preincubated 15 min with NEM. Type of experiment: biochemical.

The test system of experiment [3] is mGPAT3 mRNA. In words: mGPAT3 mRNA (Q-PCR) in white adipose tissue of ob/ob mice treated with PPARγ agonist. Type of experiment: in vivo, mouse. The following applies: 15 mg/kg gavage once a day for 21 days. As for the experimental part: To confirm and extend the transcriptional profiling data, TAQMAN® (Applied Biosystems, Foster City, Calif.) real-time quantitative PCR (Q-PCR) analysis was performed using probes specific for mouse and human GPAT3. Briefly, undifferentiated and differentiated 3T3-L1 adipocytes, tissues from normal 8-12 week old male C57B1/6J mice, and tissues from 10-week old male ob/ob and age-matched wild type control mice were obtained as previously described (Lake et al., supra). For PPARγ agonist treatment, 10-week old male ob/ob mice were gavaged once a day with 15 mg/kg rosiglitazone or vehicle control for 21 days. RNA and cDNA were prepared as previously described (Lake et al., supra). Gene profiling data were generated using the MOE430 chip according to the manufacturer's recommendations (Affymetrix, Santa Clara, Calif.). Q-PCR was performed using an ABI PRISM® 7900 sequence detector (Applied Biosystems, Foster City, Calif.) with 18s as an internal control as described (Lake et al., supra). Gene-specific primers and probes were obtained from Applied Biosystems (Cat. Nos. mm00554802_ml and Hs00262010_ml). Relative expression was determined by the […] (Applied Biosystems, Foster City, Calif.).
PPARγ agonists such as rosiglitazone induce expression of the lipogenic program in adipose tissue (Rosen and Spiegelman (2001) J. Biol. Chem. 276:37731-34). […]

On to `O=P(O)(O)OCC(O)CO` (stereo not drawn) [G3P, glycerol 3-phosphate], for which the “substrate concentration at half-maximal activity (hGPAT3-dependent LPA formation)” value in experiment [1] is around 80 µM. Regarding `CCN1C(=O)C=CC1=O` [NEM, N-ethylmaleimide], the “mtGPAT1-dependent LPA formation after NEM pretreatment” value in experiment [2] is “not affected”. The “increase in LPA formation conferred by hGPAT3 overexpression after NEM pretreatment” value in experiment [1] (HEK293 lysates) and in experiment [1] (Sf-9 lysates) was “completely abolished” in each case. Regarding `CCCCCCCCCCCC(=O)SCCNC(=O)CCNC(=O)[C@H](O)C(C)(C)COP(=O)(O)OP(=O)(O)OC[C@H]1O[C@@H](n2cnc3c(N)ncnc32)[C@H](O)[C@@H]1OP(=O)(O)O` [lauroyl-CoA], in experiment [1], the “substrate concentration at half-maximal activity (hGPAT3-dependent LPA formation)” value is around 25 µM.

Regarding `CN(CCOc1ccc(CC2SC(=O)NC2=O)cc1)c1ccccn1` (stereo not drawn) [rosiglitazone], the “induced expression of mGPAT3 mRNA in white adipose tissue over control” value in experiment [3] was 4.5 fold.
